Test results: patent publication US20120121540A1 (priority 2007, published 2012)

Assay: HCV replicon assay (luciferase reporter, ET cell line)
Type: cell-based
Conditions: Hepatitis C virus, HCV replicon luciferase activity in ET cells
How it was run: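 ET cells carry a stable luciferase-ubiquitin-neo/NS3-5B subgenomic HCV replicon with adaptive mutations. Compounds (0.1 nM to […], 0.5% DMSO) were added 24 h after plating, and luciferase was read 48-72 h later. EC50 came from 10-point 2-fold dilutions fitted to a Hill equation; TC50 was measured in parallel by WST-1.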

## CCN(CC)C(=O)c1ccccc1C1=CCN(C(=O)c2nc3c(C(F)(F)F)cc(-c4ccoc4)cn3c2Cl)CC1 [Compound 560, 2-[1-(3-Chloro-6-furan-3-yl-8-trifluoromethyl-imidazo[1,2-a]pyridine-2-carbonyl)-1,2,3,6-tetrahydro-pyridin-4-yl]-N,N-diethyl-benzamide]
  inhibition at 10 µM: 80.9%

## O=C(c1nc2c(C(F)(F)F)cc(-c3ccoc3)cn2c1Cl)N1CC=C(c2ccccc2CO)CC1 [Compound 561, (3-Chloro-6-furan-3-yl-8-trifluoromethyl-imidazo[1,2-a]pyridin-2-yl)-[4-(2-hydroxymethyl-phenyl)-3,6-dihydro-2H-pyridin-1-yl)-methanone]
  inhibition at 10 µM: 89.1%

## COc1cccc(OC)c1C1=CCN(C(=O)c2nc3c(C(F)(F)F)cc(-c4ccoc4)cn3c2Cl)CC1 [Compound 562, (3-Chloro-6-furan-3-yl-8-trifluoromethyl-imidazo[1,2-a]pyridin-2-yl)-[4-(2,6-dimethoxy-phenyl)-3,6-dihydro-2H-pyridin-1-yl)-methanone]
  inhibition at 10 µM: 13.4%

## N#Cc1ccccc1C1=CCN(C(=O)c2nc3c(C(F)(F)F)cc(-c4ccoc4)cn3c2Cl)CC1 [Compound 563, 2-[1-(3-Chloro-6-furan-3-yl-8-trifluoromethyl-imidazo[1,2-a]pyridine-2-carbonyl)-1,2,3,6-tetrahydro-pyridin-4-yl]-benzonitrile]
  inhibition at 10 µM: 97.4%

## O=C(c1nc2c(C(F)(F)F)cc(-c3ccoc3)cn2c1Cl)N1CC=C(c2c(F)cccc2F)CC1 [Compound 564, (3-Chloro-6-furan-3-yl-8-trifluoromethyl-imidazo[1,2-a]pyridin-2-yl)-[4-(2,6-difluoro-phenyl)-3,6-dihydro-2H-pyridin-1-yl)-methanone]
  inhibition at 10 µM: 99%

## N#Cc1cccc(F)c1C1=CCN(C(=O)c2nc3c(C(F)(F)F)cc(-c4ccoc4)cn3c2Cl)CC1 [Compound 565, 2-[1-(3-Chloro-6-furan-3-yl-8-trifluoromethyl-imidazo[1,2-a]pyridine-2-carbonyl)-1,2,3,6-tetrahydro-pyridin-4-yl]-3-fluoro-benzonitrile]
  inhibition at 10 µM: 98%

## O=C(c1nc2c(C(F)(F)F)cc(-c3ccoc3)cn2c1Cl)N1CC=C(c2cscn2)CC1 [Compound 566]
  inhibition at 10 µM: 99.4%

## C#Cc1ccccc1C1=CCN(C(=O)c2nc3c(C(F)(F)F)cc(-c4ccoc4)cn3c2Cl)CC1 [Compound 567, (3-Chloro-6-furan-3-yl-8-trifluoromethyl-imidazo[1,2-a]pyridin-2-yl)-[4-(2-ethynyl-phenyl)-3,6-dihydro-2H-pyridin-1-yl)-methanone]
  inhibition at 10 µM: 81.3%

## O=C(c1nc2c(C(F)(F)F)cc(-c3ccoc3)cn2c1Cl)N1CC=C(c2cncs2)CC1 [Compound 568]
  inhibition at 10 µM: 98.8%

## N#Cc1ccc(F)cc1C1=CCN(C(=O)c2nc3c(C(F)(F)F)cc(-c4ccoc4)cn3c2Cl)CC1 [Compound 569, 2-[1-(3-Chloro-6-furan-3-yl-8-trifluoromethyl-imidazo[1,2-a]pyridine-2-carbonyl)-1,2,3,6-tetrahydro-pyridin-4-yl]-4-fluoro-benzonitrile]
  inhibition at 10 µM: 85.3%

## N#Cc1cc(F)ccc1C1=CCN(C(=O)c2nc3c(C(F)(F)F)cc(-c4ccoc4)cn3c2Cl)CC1 [Compound 570, 2-[1-(3-Chloro-6-furan-3-yl-8-trifluoromethyl-imidazo[1,2-a]pyridine-2-carbonyl)-1,2,3,6-tetrahydro-pyridin-4-yl]-5-fluoro-benzonitrile]
  inhibition at 10 µM: 89.1%

## O=C(c1nc2c(C(F)(F)F)cc(-c3ccoc3)cn2c1Cl)N1CC=C(c2ncccc2F)CC1 [Compound 571, (3-Chloro-6-furan-3-yl-8-trifluoromethyl-imidazo[1,2-a]pyridin-2-yl)-(3-fluoro-3′,6′-dihydro-2′H-[2,4′]bipyridinyl-1′-yl)-methanone]
  inhibition at 10 µM: 97.8%

## O=C(c1nc2c(C(F)(F)F)cc(-c3ccoc3)cn2c1Cl)N1CC=C(c2ccncc2F)CC1 [Compound 572, (3-Chloro-6-furan-3-yl-8-trifluoromethyl-imidazo[1,2-1]pyridine-2-yl)-(3′-fluoro-3,6-dihydro-2H-[4,4′]bipyridinyl-1-yl)-methanone]
  inhibition at 10 µM: 98.2%

## O=C(c1nc2c(C(F)(F)F)cc(-c3ccoc3)cn2c1Cl)N1CC=C(c2ncc(CO)s2)CC1 [Compound 573, (3-Chloro-6-furan-3-yl-8-trifluoromethyl-imidazo[1,2-a]pyridine-2-yl)-[4-(5-hydroxymethyl-thiazol-2-yl)-3,6-dihydro-2H-pyridin-1-yl]-methanone]
  inhibition at 10 µM: 91.2%

## O=C(c1nc2c(C(F)(F)F)cc(-c3ccoc3)cn2c1Cl)N1CC=C(OS(=O)(=O)C(F)(F)F)CC1 [Compound 574, Trifluoro-methanesulfonic Acid 1-(3-chloro-6-furan-3-yl-8-trifluoromethyl-imidazo[1,2-a]pyridine-2-carbonyl)-1,2,3,6-tetrahydro-pyridin-4-yl Ester]
  inhibition at 10 µM: 79.1%

## O=C(c1nc2c(C(F)(F)F)cc(-c3ccoc3)cn2c1Cl)N1CC=C(c2ccoc2)CC1 [Compound 575, (3-Chloro-6-furan-3-yl-8-trifluoromethyl-imidazo[1,2-a]pyridine-2-yl)-(4-furan-3-yl-3,6-dihydro-2H-pyridin-1-yl)-methanone]
  inhibition at 10 µM: 94.3%

## O=C(c1nc2c(C(F)(F)F)cc(-c3ccoc3)cn2c1Cl)N1CC=C(c2cccc(F)c2)CC1 [Compound 576, (3-Chloro-6-furan-3-yl-8-trifluoromethyl-imidazo[1,2-a]pyridin-2-yl)-[4-(3-fluoro-phenyl)-3,6-dihydro-2H-pyridin-1-yl)-methanone]
  inhibition at 10 µM: 82.6%

## CN(C)S(=O)(=O)c1ccccc1C1=CCN(C(=O)c2nc3c(C(F)(F)F)cc(-c4ccoc4)cn3c2Cl)CC1 [Compound 577, 2-[1-(3-Chloro-6-furan-3-yl-8-trifluoromethyl-imidazo[1,2-a]pyridin-2-carbonyl)-1,2,3,6-tetrahydro-pyridin-4-yl)-N,N-dimethyl-benzenesulfonamide]
  inhibition at 10 µM: 71.2%

## Cn1cc(C2=CCN(C(=O)c3nc4c(C(F)(F)F)cc(-c5ccoc5)cn4c3Cl)CC2)cn1 [Compound 578, (3-Chloro-6-furan-3-yl-8-trifluoromethyl-imidazo[1,2-a]pyridin-2-yl)-[4-(1-methyl-1H-pyrazol-4-yl)-3,6-dihydro-2H-pyridin-1-yl)-methanone]
  inhibition at 10 µM: 97.2%

## O=C(c1nc2c(C(F)(F)F)cc(-c3ccoc3)cn2c1Cl)N1CC=C(c2cn[nH]c2)CC1 [Compound 579, (3-Chloro-6-furan-3-yl-8-trifluoromethyl-imidazo[1,2-a]pyridin-2-yl)-[4-(1-1H-pyrazol-4-yl)-3,6-dihydro-2H-pyridin-1-yl)-methanone]
  inhibition at 10 µM: 97.6%

## O=C(c1nc2c(C(F)(F)F)cc(-c3ccoc3)cn2c1Cl)N1CC=C(c2cccnc2F)CC1 [Compound 581, (3-Chloro-6-furan-3-yl-8-trifluoromethyl-imidazo[1,2-a]pyridin-2-yl)-(2-fluoro-3′,6′-dihydro-2′H-[3,4′]bipyridinyl-1′-yl)-methanone]
  inhibition at 10 µM: 98.2%

## O=C(c1nc2c(C(F)(F)F)cc(-c3ccoc3)cn2c1Cl)N1CC=C(c2cnoc2)CC1 [Compound 582, (3-Chloro-6-furan-3-yl-8-trifluoromethyl-imidazo[1,2-a]pyridin-2-yl)-(4-isoxazol-4-yl-3,6-dihydro-2H-pyridin-1-yl)-methanone]
  inhibition at 10 µM: 91.2%

## O=C(c1nc2c(C(F)(F)F)cc(-c3ccoc3)cn2c1Cl)N1CC=C(c2cc[nH]c2)CC1 [Compound 583, (3-Chloro-6-furan-3-yl-8-trifluoromethyl-imid azo[1,2-a]pyridin-2-yl)-[4-(1H-pyrrol-3-yl)-3,6-dihydro-2H-pyridin-1-yl]-methanone]
  inhibition at 10 µM: 67.9%

## O=C(c1nc2c(C(F)(F)F)cc(-c3ccoc3)cn2c1Cl)N1CC=C(c2ccn[nH]2)CC1 [Compound 584, (3-Chloro-6-furan-3-yl-8-trifluoromethyl-imidazo[1,2-a]pyridin-2-yl)-[4-(2H-pyrazol-3-yl)-3,6-dihydro-2H-pyridin-1-yl]methanone]
  inhibition at 10 µM: 72.5%

## CC(=O)c1ccc(C2=CCN(C(=O)c3nc4c(C(F)(F)F)cc(-c5ccoc5)cn4c3Cl)CC2)s1 [Compound 585, 1-{5-[1-(3-Chloro-6-furan-3-yl-8-trifluoromethyl-imidazo[1,2-a]pyridine-2-carbonyl)-1,2,3,6-tetrahydro-pyridin-4-yl]-thiophen-2-yl}-ethanone]
  inhibition at 10 µM: 93.2%

## Cn1nccc1C1=CCN(C(=O)c2nc3c(C(F)(F)F)cc(-c4ccoc4)cn3c2Cl)CC1 [Compound 586, (3-Chloro-6-furan-3-yl-8-trifluoromethyl-imidazo[1,2-a]pyridine-2-yl)-[4-(2-methyl-2H-pyrazol-3-yl)-3,6-dihydro-2H-pyridin-1-yl]-methanone]
  inhibition at 10 µM: 86%

## O=C(c1nc2c(C(F)(F)F)cc(-c3ccoc3)cn2c1Cl)N1CC=C(c2ccnc(F)c2)CC1 [Compound 587, (3-Chloro-6-furan-3-yl-8-trifluoromethyl-imidazo[1,2-a]pyridine-2-yl)-(2′-fluoro-3,6-dihydro-2H-[4,4′]bipyridinyl-1-yl)-methanone]
  inhibition at 10 µM: 76.9%

## O=C(c1nc2c(C(F)(F)F)cc(-c3ccoc3)cn2c1Cl)N1C=C(c2cscn2)CCC1 [Compound 588, (3-Chloro-6-furan-3-yl-8-trifluoromethyl-imidazo[1,2-a]pyridin-2-yl)-(5-thiazol-4-yl-3,4-dihydro-2H-pyridin-1-yl)-methanone]
  inhibition at 10 µM: 84.5%

## O=C(c1nc2c(C(F)(F)F)cc(-c3ccoc3)cn2c1Cl)N1CCC=C(c2cscn2)C1 [Compound 589, (3-Chloro-6-furan-3-yl-8-trifluoromethyl-imidazo[1,2-a]pyridin-2-yl)-(5-thiazol-4-yl-3,6-dihydro-2H-pyridin-1-yl)-methanone]
  inhibition at 10 µM: 76%

## O=C(c1nc2c(C(F)(F)F)cc(-c3ccoc3)cn2c1Cl)N1C=C(c2ccccc2F)CCC1 [Compound 590, (3-Chloro-6-furan-3-yl-8-trifluoromethyl-imidazo[1,2-a]pyridine-2-yl)-[5-(2-fluoro-phenyl)-3,4-dihydro-2H-pyridin-1-yl]-methanone]
  inhibition at 10 µM: 93.9%
